According to patent publication US10758466B2, “Powder-based cosmetic compositions containing pelargonic acid esters” (Novamont S.p.A., priority 2015, dated 2020):

Key:
[1] = UV filters dispersion: dispersibility of solid UV filter in ester oils; assay type: physicochemical; parameters: key: D=homogeneous dispersion; S=sediment deposit; settings: 25° C.; for Filters dispersion t0 1%: 1% TiO2, storage 0 hours; for Filters dispersion t24 1%: 1% TiO2, storage 24 hours; for Filters dispersion t0 10%: 10% TiO2, storage 0 hours; for Filters dispersion t24 10%: 10% TiO2, storage 24 hours
Procedure: The dispersibility of a solid UV filter in different ester oils was tested using Titania (TiO2, commercially available as Titanio Biossido Anatasio from A.C.E.F.). Various ratios of solute/solvent (1% and 10% TiO2) were prepared under stiffing at 70° C. for 30 minutes. The dispersions were then observed after a storage period of 0 hours (t0) and 24 hours (t24) at ambient temperature (25° C.) to check for the formation of any sediment deposit. Results for each ester are shown in the table below (D=homogeneous dispersion; S=sediment deposit).

[2] = Pigments dispersion: wet point and flow point of ester oil; assay type: physicochemical; settings: for Fp: amount of ester oil needed to reach the flow point; for Fp / Wp: grams per 100 g of pigment; for Wp: amount of ester oil needed to reach the wet point
From the text: Black Iron Oxide particles (CI77499, commercially available as YPC335200 from Yipin) were dispersed in each of the ester oils of the present invention and in ester oil commonly used as cosmetic ingredients. Each sample of powder particles was wetted by the dropwise addition of one ester oil and then vigorously blended using a spatula until the wet point and the flow point were reached.
The wet point is defined as the minimum volume of dispersant solution to produce a soft coherent mass; the further minimum addition of dispersant solution to produce flow or falling off of the homogeneous mass from the vertical blade of a horizontally held spatula determines the flow point.
The amounts of dispersant solution (i.e. ester oil) needed to reach the wet point (Wp) and the flow point (Fp) were recorded and reported in the table below, expressed in grams per 100 g of pigment.

Row | Filters dispersion t0 1% [1] | Filters dispersion t24 1% [1] | Filters dispersion t0 10% [1] | Filters dispersion t24 10% [1] | Fp [2] [g] | Wp [2] [g] | less solvent required on the final composition ([2]; from Fp close to Wp, compared with commonly used ester oils) | SMILES
1 | D | D | D | S/D | 100.00 | 60.00 | about 30% | CCCCCCCCC(=O)OCC(COC(=O)CCCCCCCC)OC(=O)CCCCCCCC [Glycerol tripelargonate]
2 | D | D | D | D | 132.00 | 62.00 |  | CCCCCCCCC(=O)OCC(COC(=O)CCCCCCCC)(COC(=O)CCCCCCCC)COC(=O)CCCCCCCC [Pentaerythritol tetrapelargonate]
3 | D | S | D | S | 145.00 | 50.00 |  | CC(C)CCCCCCOC(=O)CCCCCC(C)C [Isononyl Isononanoate, reference compound]
4 | D | S/D | D | S/D | 166.00 | 61.00 |  | CCCCCCCCC(=O)OCC(C)(C)COC(=O)CCCCCCCC [Neopentyl glycol dipelargonate]
